# Assay results published in patent US6936628B2, “Oral administration of epothilones” (Bristol-Myers Squibb Company, priority 2002, dated 2005).
# Like-named read-outs stand apart in the source and are kept apart here.
# Experiments:
# CYP3A4 [1] = target: T1, CYP3A4 (Homo sapiens, UniProt P08684); assay: Inhibition of human CYP enzymes, CYP3A4
# [2] = tested on: Pat-26 human pancreatic carcinoma; conditions: mouse, in vivo
# [3] = rat, in vivo
# CYP2D6 = CYP2D6 (Homo sapiens, UniProt P10635); assay: Inhibition of human CYP enzymes, CYP2D6
# Pharmacokinetics in mice = assay type: in vivo; conditions: nude mice
# Experimental: The pharmacokinetics of Compound A was evaluated in nude mice after IV (5 mg/kg) and oral (15 mg/kg) administration (n=15 mice/group). Compound A was dissolved in a mixture of cremophor:ethanol:water (10:10:80) and cremophor:ethanol:phosphate buffer, pH 8 (10:10:80) for the preparation of IV and oral doses, respectively. Plasma concentrations of Compound A were determined at 10 and 45 min, and 2, 4, and 6 hours postdose from 3 mice/time point/group. Composite plasma concentration-time profiles were constructed for pharmacokinetic analysis. […] The VSS values was 38 L/kg which is greater than total body water of about 0.7 L/kg, indicating significant extravascular distribution. The T-HALF value, both after IV and oral administration, was 3.3 h.
# rabbit Purkinje fiber = assay: Rabbit Purkinje-fiber action potential model; assay type: cell-based; conditions: 30 μM
# Experimental: Human embryonic kidney (HEK293) cells stably transfected with the human ether-a-go-go related gene (HERG) cDNA were utilized in the HERG assay. Rabbit Purkinje fibres were used for the Purkinje-fibre action potential assay^7.
# In a non-GLP study^7, Compound A, at concentrations of 3, 10 and 30 μM, was evaluated in an in vitro rabbit Purkinje fiber model. This model was developed to determine if a compound would affect the action-potential duration of the Purkinje fiber or other action-potential parameters. […] Based on these findings, Compound A is unlikely to provoke clinically relevant electrocardiographic effects in vivo.
# [4] = Effects of formulation on antitumor efficacy; assay type: in vivo
# [5] = Stability in rat EDTA plasma and whole blood; assay type: in vitro ADME
# Experimental: Plasma samples from exploratory pharmacokinetic studies were analyzed for Compound A concentrations using an LC/MS/MS assay with a standard curve range of 3.9 to 2000 ng/mL. In pharmacodynamic studies, Compound A concentrations were determined using an LC/MS/MS assay with a standard curve range of 10-40000 nM (5.23-20920 ng/mL) in mouse plasma. For toxicology studies, validated LC/MS/MS assays were used to determine the concentrations of Compound A in rat and dog plasma. Analytical data management for the validated assays was carried out using Watson®. The standard curve range for the validated assay in both matrices was 2 to 500 ng/mL of Compound A. The coefficient of variation for the inter- and intra-assay precision in rat and dog plasma was within 9% and the accuracy was greater than 92%. […] Compound A was stable for at least 4 months at !20EC and through at least 3 freeze-thaw cycles in rat and dog EDTA plasma. In addition, Compound A was stable in fresh rat and dog EDTA whole blood for at least 1 h at 4EC.
# [6] = tested on: sc Pat-7 human ovarian carcinoma; assay: Minimum effective infusional dose regimen versus sc Pat-7; assay type: in vivo, mice; conditions: constant-rate IV infusion over 10 hr
# [7] = Stability of aqueous solution (time for 5% drug loss, t95); assay type: physicochemical; conditions: 37° C.
# [8] = tested on: human ovarian carcinoma xenograft A2780; assay: Antitumor activity by parenteral administration to rats, A2780 xenograft; assay type: in vivo, nude rats
# Experimental: The required number of animals needed to detect a meaningful response were pooled at the start of the experiment and each was given a subcutaneous implant of a tumor fragment (≈50 mg) with a 13-gauge trocar. For treatment of early-stage tumors, the animals were again pooled before distribution to the various treatment and control groups. For treatment of animals with advanced-stage disease, tumors were allowed to grow to the pre-determined size window (tumors outside the range were excluded) and animals were evenly distributed to various treatment and control groups. Treatment of each animal was based on individual body weight. Treated animals were checked daily for treatment related toxicity/mortality. Each group of animals was weighed before the initiation of treatment (Wt1) and then again following the last treatment dose (Wt2). The difference in body weight (Wt2−Wt1) provides a measure of treatment-related toxicity.
# Tumor response was determined by measurement of tumors with a caliper twice a week, until the tumors reach a predetermined “target” size of 1 gm. Tumor weights (mg) were estimated from the formula: Tumor weight=(length×width^2)÷2
# Antitumor activity was evaluated at the maximum tolerated dose (MTD) which is defined as the dose level immediately […] which excessive toxicity (i.e. more than one death) occurred. The MTD was frequently equivalent to OD. When death occurred, the day of death was recorded. Treated mice dying prior to having their tumors reach target size were considered to have died from drug toxicity. No control mice died bearing tumors less than target size. Treatment groups with more than one death caused by drug toxicity were considered to have had excessively toxic treatments and their data were not included in the evaluation of a compound's antitumor efficacy.
# Tumor response end-point was expressed in terms of tumor growth delay (T−C value), defined as the difference in time (days) required for the treated tumors (T) to reach a predetermined target size compared to those of the control group (C).
# To estimate tumor cell kill, the tumor volume doubling time was first calculated with the formula: TVDT=Median time (days) for control tumors to reach target size−Median time (days) for control tumors to reach half the target size and Log cell kill=T−C÷(3.32×TVDT)
# Compound A was evaluated versus the human ovarian carcinoma xenograft A2780 grown in nude rats. […] In comparison, Compound B produced 3.3 LCK at its MTD (2.4 mg/kg/inj, IV, every 8 days×2).
# CYP3A4 [9] = target: T1, CYP3A4; assay: Metabolism by specific CYP enzymes (human liver microsomes with specific inhibitors); assay type: in vitro ADME
# Experimental: Compound A was incubated with human liver microsomes along with compounds specific for the inhibition of individual cytochrome P450s commonly involved in drug metabolism. The inhibitors used were; furafylline (CYP1A2), sulfaphenazole (CYP2C9), tranylcypromine (CYP2C19), quinidine (CYP2D6), troleandomycin (CYP3A4), and ketoconazole (CYP3A4).
# T1 sequence (P08684 whole entry): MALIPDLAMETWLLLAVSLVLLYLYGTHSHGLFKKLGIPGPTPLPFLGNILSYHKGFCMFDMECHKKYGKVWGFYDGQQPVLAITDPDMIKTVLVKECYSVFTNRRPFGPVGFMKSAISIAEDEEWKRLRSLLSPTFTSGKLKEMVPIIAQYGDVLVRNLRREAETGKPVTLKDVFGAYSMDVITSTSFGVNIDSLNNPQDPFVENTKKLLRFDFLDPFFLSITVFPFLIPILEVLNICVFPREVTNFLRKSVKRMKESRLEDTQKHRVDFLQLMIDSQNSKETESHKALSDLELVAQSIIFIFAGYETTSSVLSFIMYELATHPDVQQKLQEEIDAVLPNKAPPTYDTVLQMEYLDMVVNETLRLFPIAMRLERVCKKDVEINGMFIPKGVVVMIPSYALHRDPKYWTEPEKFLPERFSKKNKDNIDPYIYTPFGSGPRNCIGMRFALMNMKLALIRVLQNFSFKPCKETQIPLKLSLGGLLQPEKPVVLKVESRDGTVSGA
# Chain of CYP2D6 (P10635 whole entry): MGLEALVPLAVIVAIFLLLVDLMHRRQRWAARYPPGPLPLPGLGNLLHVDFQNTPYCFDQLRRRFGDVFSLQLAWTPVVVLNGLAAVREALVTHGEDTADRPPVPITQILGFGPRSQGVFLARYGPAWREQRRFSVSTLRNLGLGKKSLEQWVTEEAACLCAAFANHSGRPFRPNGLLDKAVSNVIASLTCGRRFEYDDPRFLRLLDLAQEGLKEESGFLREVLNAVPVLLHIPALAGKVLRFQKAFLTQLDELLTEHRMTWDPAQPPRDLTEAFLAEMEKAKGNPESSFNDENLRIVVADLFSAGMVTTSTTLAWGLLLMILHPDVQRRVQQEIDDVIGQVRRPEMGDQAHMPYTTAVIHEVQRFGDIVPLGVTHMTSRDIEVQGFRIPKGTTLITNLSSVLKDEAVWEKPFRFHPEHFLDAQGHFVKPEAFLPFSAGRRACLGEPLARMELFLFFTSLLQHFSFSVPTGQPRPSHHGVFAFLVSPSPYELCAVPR
smiles,measurement,setting,value
"C/C(=C\c1csc(CN)n1)[C@@H]1C[C@@H]2O[C@]2(C)CCC[C@H](C)[C@H](O)[C@@H](C)C(=O)C(C)(C)[C@@H](O)CC(=O)O1 (relative stereo) [Compound A, [1S-[1R*,3R*(E),7R*,10S*,11R*,12R*,16S*]]-3-[2-[2-(aminomethyl)-4-thiazolyl]-1-methylethenyl]-7,11-dihydroxy-8,8,10,12,16-pentamethyl-4,17-dioxabicyclo[14.1.0]heptadecane-5,9-dione]",IC50,CYP3A4 [1],7.1 µM
same,MTD,[2],10 mg/kg/inj
same,LCK (gross log cell kill),[2]; iv,1.2
same,drug related material in bile,[3],No drug related material was detected
same,percent of the dose recovered in the urine as parent,"[3]; iv, 2 mg/kg",approximately 18%
same,percent of the dose recovered in the urine as parent,"[3]; po, 8 mg/kg",~2.4%
same,IC50,CYP2D6,> 70 µM
same,Vd,"Pharmacokinetics in mice; mouse, plasma, IV 5 mg/kg, read-out: VSS",38 L/kg
same,bioavailability,"Pharmacokinetics in mice; mouse, plasma, oral 15 mg/kg vs IV 5 mg/kg, read-out: absolute oral bioavailability",21%
same,CLT,Pharmacokinetics in mice; IV 5 mg/kg,152 mL/min/kg
same,T-HALF,Pharmacokinetics in mice; IV 5 mg/kg,3.3 h
same,T-HALF,Pharmacokinetics in mice; oral 15 mg/kg,3.3 h
same,decrease of Purkinje fiber APD90,rabbit Purkinje fiber,less than 10%
same,LCK,"[4]; formulated in cremophor/ethanol/water (10:10:80, v/v/v)",3.3
same,LCK,"[4]; formulated in sodium acetate buffer (30 mM, pH 5.0)",3.4
same,stable through freeze-thaw cycles,[5]; rat EDTA plasma,at least 3 freeze-thaw cycles
same,stable in frozen plasma,"[5]; rat EDTA plasma, !20EC",at least 4 months
same,stable in plasma prior to processing,"[5]; rat EDTA plasma, room temperature",at least 4 h
same,stable in fresh whole blood,"[5]; rat EDTA whole blood, 4EC",at least 1 h
same,stable in an autosampler after processing,"[5]; rat plasma samples, 4EC",at least 5 days
same,Tumor growth delay equivalent to LCK,[6]; 2 mg/kg,0.1
same,Tumor growth delay equivalent to LCK,[6]; 4 mg/kg,0.7
same,Tumor growth delay equivalent to LCK,[6]; 8 mg/kg,1.1
same,Tumor growth delay equivalent to LCK,[6]; 16 mg/kg,1.7
same,time for 5% drug loss (t95),[7]; pH 2.5,< 0.2 h
same,time for 5% drug loss (t95),[7]; pH 7,approximately 14 h
same,LCK,"[8]; A2780 in nude rats, IV, every 8 days×2, at MTD",0.7
same,MTD,"[8]; nude rats bearing A2780, IV, every 8 days×2",3 mg/kg/inj
same,"effect of CYP3A4 inhibitors (troleandomycin, ketoconazole) on biotransformation",CYP3A4 [9],completely inhibited
